Assay results as given in patent US6214839A, “Substituted 6-alkylphenanthridines” (Byk Gulden Lomberg Chemische Fabrik GmbH, priority 1997, dated 2001).

System: PDE 4
Assay: Inhibition of PDE 4 activity
Assay type: biochemical
Details: inhibitory concentration as -log IC50 (mol/l), method of Bauer and Schwabe adapted to microtiter plates

## CCOc1cc2c(cc1OC)C([C@H]1CC[C@H](C(=O)OC)CC1)=N[C@H]1CCCC[C@@H]21 (relative stereo) [Compound 1]
  -log IC50: 7.47
